Calls of active or inactive are those of the source. The calls are words filed in the database; no cut-off is given here.
How the values were obtained:
[1] = target: Epidermal growth factor receptor (Homo sapiens, UniProt P00533); assay: biochemical; assay type: cell-based, Sf9
Description: Inhibition of C-terminal His-tagged/ N-terminal GST-tagged recombinant human EGFR (668 to 1210 residues) expressed in a Baculovirus infected Sf9 cell expression system using poly-EY as substrate incubated for 30 mins by ADP-Glo kinase assay

[2] = target: Epidermal growth factor receptor (Homo sapiens, UniProt P00533, L858R/T790M); assay: biochemical; assay type: cell-based, Sf9
[3] = target: Epidermal growth factor receptor (Homo sapiens, UniProt P00533, C797S/L858R/T790M); assay: biochemical; assay type: cell-based, Sf9
Epidermal growth factor receptor (Homo sapiens, UniProt P00533, C797S/L858R/T790M), sequence (P00533 25-1210 T790M/C797S/L858R limits assumed): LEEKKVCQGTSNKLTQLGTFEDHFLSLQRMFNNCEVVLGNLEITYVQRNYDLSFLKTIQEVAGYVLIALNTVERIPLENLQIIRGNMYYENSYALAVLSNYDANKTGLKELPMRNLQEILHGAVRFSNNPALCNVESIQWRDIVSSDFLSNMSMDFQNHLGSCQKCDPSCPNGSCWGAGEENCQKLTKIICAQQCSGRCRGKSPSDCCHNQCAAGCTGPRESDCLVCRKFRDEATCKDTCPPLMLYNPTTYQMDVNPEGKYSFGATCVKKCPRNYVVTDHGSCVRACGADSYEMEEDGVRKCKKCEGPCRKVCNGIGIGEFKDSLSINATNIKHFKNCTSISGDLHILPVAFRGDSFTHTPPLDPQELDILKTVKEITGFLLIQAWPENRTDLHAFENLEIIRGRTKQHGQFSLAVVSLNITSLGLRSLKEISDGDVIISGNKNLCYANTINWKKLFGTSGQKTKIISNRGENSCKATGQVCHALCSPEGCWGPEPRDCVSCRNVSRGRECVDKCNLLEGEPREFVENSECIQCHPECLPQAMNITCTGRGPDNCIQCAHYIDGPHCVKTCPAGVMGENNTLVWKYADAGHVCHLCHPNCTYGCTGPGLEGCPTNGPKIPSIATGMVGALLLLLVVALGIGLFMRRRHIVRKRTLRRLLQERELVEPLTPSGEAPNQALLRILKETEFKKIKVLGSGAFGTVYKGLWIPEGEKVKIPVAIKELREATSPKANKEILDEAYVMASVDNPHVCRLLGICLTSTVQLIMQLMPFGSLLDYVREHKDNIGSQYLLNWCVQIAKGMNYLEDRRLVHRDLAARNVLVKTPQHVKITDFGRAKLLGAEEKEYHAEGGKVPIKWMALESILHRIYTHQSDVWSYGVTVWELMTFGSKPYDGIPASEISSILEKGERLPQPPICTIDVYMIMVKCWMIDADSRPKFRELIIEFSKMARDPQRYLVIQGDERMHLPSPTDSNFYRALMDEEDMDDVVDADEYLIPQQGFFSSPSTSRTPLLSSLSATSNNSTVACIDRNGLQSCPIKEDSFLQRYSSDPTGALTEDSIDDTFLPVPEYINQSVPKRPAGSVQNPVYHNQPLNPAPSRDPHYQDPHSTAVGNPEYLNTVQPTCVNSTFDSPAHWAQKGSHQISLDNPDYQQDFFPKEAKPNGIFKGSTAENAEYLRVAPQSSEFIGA

[4] = tested on: NCI-H1975; assay: Antiproliferative activity against human NCI-H1975 cells incubated for 72 hrs by MTS assay; assay type: functional, cell-based; conditions: NCI-H1975, 72 h
[5] = tested on: NCI-H1975; assay: cells; assay type: functional, cell-based; conditions: Homo sapiens, NCI-H1975, 72 h
[6] = tested on: A549; assay: Antiproliferative activity against human A549 cells harbouring wild type EGFR incubated for 72 hrs by SRB assay; assay type: functional, cell-based; conditions: A549, 72 h
[7] = tested on: MDA-MB-231; assay: Antiproliferative activity against human MDA-MB-231 cells incubated for 72 hrs by SRB assay; assay type: functional, cell-based; conditions: MDA-MB-231, 72 h
[8] = tested on: KB; assay: Antiproliferative activity against human KB cells incubated for 72 hrs by SRB assay; assay type: functional, cell-based
[9] = Antiproliferative activity against human KB-VIN10 cells incubated for 72 hrs by SRB assay; assay type: functional, cell-based; conditions: KB-VIN10, 72 h
[10] = tested on: MCF7; assay: Antiproliferative activity against human MCF7 cells incubated for 72 hrs by SRB assay; assay type: functional, cell-based; conditions: MCF7, 72 h
[11] = tested on: NCI-H1975; assay: Antiproliferative activity against human NCI-H1975 cells assessed as induction of NO production at 100 uM incubated for 150 mins by Griess reagent based assay; assay type: functional, cell-based
[12] = tested on: NCI-H1975; assay: Antiproliferative activity against human NCI-H1975 cells assessed as induction of NO production at 25 uM preincubated for 1 hr with hemoglobin followed by compound addition and measured after 48 hrs by Griess reagent based assay; assay type: functional, cell-based

Epidermal growth factor receptor (Homo sapiens, UniProt P00533, L858R/T790M), sequence (P00533 25-1210 T790M/L858R limits assumed): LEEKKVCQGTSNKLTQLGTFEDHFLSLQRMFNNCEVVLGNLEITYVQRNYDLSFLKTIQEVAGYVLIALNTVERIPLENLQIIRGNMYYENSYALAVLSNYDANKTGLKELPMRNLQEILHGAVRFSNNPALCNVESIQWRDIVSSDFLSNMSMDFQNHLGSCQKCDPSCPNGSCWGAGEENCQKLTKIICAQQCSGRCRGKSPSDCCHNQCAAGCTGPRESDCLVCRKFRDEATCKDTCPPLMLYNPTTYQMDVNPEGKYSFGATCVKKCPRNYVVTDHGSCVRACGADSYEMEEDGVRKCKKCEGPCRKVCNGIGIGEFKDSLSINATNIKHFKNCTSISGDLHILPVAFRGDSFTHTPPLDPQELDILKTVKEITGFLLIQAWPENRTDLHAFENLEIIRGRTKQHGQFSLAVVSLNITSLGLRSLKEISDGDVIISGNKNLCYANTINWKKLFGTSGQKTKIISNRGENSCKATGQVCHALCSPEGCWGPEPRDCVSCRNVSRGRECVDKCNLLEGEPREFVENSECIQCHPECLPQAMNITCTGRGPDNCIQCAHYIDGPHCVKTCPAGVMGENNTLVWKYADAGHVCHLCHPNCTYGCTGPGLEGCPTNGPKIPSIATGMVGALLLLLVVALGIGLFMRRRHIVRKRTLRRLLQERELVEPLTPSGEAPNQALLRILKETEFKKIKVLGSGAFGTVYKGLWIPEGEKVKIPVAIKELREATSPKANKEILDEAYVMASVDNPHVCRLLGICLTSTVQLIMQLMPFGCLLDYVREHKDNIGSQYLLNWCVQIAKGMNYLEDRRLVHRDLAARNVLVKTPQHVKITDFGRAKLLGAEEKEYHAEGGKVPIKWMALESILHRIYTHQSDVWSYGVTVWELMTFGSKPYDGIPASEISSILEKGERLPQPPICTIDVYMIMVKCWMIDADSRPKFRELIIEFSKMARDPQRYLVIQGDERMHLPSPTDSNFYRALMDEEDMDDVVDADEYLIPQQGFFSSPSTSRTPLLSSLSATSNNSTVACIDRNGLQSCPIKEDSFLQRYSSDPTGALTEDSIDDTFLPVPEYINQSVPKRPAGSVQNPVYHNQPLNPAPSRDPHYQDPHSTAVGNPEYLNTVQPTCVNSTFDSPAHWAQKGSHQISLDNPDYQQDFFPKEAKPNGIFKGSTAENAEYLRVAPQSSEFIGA
Epidermal growth factor receptor (Homo sapiens, UniProt P00533), sequence (P00533 whole entry): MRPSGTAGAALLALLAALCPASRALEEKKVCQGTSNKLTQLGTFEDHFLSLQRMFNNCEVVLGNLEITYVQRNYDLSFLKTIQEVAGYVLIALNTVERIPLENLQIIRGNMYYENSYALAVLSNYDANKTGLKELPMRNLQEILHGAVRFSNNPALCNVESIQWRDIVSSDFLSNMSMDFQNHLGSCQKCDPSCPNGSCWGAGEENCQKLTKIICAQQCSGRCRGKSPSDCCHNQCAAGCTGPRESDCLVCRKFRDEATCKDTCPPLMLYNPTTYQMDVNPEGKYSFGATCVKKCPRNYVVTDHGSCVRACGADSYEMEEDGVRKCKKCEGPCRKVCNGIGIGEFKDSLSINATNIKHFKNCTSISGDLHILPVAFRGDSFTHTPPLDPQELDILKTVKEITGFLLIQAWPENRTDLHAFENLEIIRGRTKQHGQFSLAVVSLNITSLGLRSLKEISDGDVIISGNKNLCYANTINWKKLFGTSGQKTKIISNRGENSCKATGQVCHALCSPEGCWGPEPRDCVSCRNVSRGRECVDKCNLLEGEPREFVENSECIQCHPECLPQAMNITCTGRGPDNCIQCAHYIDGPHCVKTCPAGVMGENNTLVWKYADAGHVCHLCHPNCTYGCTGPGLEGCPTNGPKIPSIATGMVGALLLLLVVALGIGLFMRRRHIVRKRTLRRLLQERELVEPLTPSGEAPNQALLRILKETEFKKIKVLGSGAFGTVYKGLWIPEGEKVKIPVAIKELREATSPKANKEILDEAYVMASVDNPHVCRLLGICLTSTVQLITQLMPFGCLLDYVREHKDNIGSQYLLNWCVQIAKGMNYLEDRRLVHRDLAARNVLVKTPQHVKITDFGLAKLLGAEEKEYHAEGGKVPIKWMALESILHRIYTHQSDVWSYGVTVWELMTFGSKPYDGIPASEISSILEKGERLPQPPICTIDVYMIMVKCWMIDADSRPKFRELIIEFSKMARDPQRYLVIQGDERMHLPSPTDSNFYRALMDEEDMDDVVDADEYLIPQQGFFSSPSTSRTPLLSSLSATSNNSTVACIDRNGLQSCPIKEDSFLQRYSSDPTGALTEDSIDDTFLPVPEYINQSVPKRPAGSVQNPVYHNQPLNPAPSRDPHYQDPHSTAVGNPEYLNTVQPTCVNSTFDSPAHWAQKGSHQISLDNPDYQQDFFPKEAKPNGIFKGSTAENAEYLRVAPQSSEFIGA

SMILES	IC50 [1]	IC50 [2]	IC50 [3]	IC50 [4]	IC50 [5]	IC50 [6]	IC50 [7]	IC50 [8]	IC50 [9]	IC50 [10]	Activity [11]	Activity [12]
CC1(C)CC[C@]2(C(=O)OCCCCO[N+](=O)[O-])CC[C@]3(C)C(=CC[C@@H]4[C@@]5(C)CC[C@H](OC(=O)/C=C/c6ccc7c(c6)OCO7)C(C)(C)[C@@H]5CC[C@]43C)[C@@H]2C1	> 20 µM	> 20 µM	> 20 µM	> 10 µM	> 10 µM	–	–	–	–	–	–	–
CC(=O)O[C@H]1CC[C@]2(C)[C@H]3CC=C4[C@@H]5CC(C)(C)CC[C@]5(C(=O)O)CC[C@@]4(C)[C@]3(C)CC[C@H]2C1(C)C [ACETYL OLEANOLIC ACID]	–	–	–	–	–	5.8 µM	> 10 µM	7.6 µM	7.6 µM	> 10 µM	–	–
C=CC(=O)O[C@H]1CC[C@]2(C)[C@H]3CC=C4[C@@H]5CC(C)(C)CC[C@]5(C(=O)OCCCCO[N+](=O)[O-])CC[C@@]4(C)[C@]3(C)CC[C@H]2C1(C)C	> 20 µM	> 20 µM	> 20 µM	> 10 µM	> 10 µM	> 10 µM	> 10 µM	> 10 µM	> 10 µM	> 10 µM	–	–
CC(=O)OC[C@@]1(C)[C@@H]2CC[C@]3(C)[C@H](CC=C4[C@@H]5CC(C)(C)CC[C@]5(C(=O)OCCCCO[N+](=O)[O-])CC[C@]43C)[C@@]2(C)CC[C@@H]1OC(C)=O	0.06 µM	> 20 µM	0.01 µM	8.1 µM	7.6 µM	4.6 µM	5.2 µM	5.1 µM	4.8 µM	5 µM	Active	inactive
CC(=O)O[C@H]1CC[C@]2(C)[C@H]3CC=C4[C@@H]5CC(C)(C)CC[C@]5(C(=O)OCCCCO[N+](=O)[O-])CC[C@@]4(C)[C@]3(C)CC[C@H]2C1(C)C	0.1 µM	> 20 µM	0.02 µM	> 10 µM	> 10 µM	4.8 µM	5.4 µM	5.3 µM	5.1 µM	5.2 µM	Active	inactive
CC1(C)CC[C@]2(C(=O)OCCCCCCO[N+](=O)[O-])CC[C@]3(C)C(=CC[C@@H]4[C@@]5(C)CC[C@H](O)C(C)(C)[C@@H]5CC[C@]43C)[C@@H]2C1	–	–	–	–	–	> 10 µM	> 10 µM	> 10 µM	> 10 µM	> 10 µM	–	–
COc1cc(N2CCC(N3CCN(C)CC3)CC2)ccc1Nc1ncc(Cl)c(Nc2ccccc2P(C)(C)=O)n1 [BRIGATINIB]	–	–	–	0.62 µM	0.64 µM	–	–	–	–	–	–	–
CC(=O)O[C@H]1C(=O)[C@@]2(C)[C@H]([C@H](OC(=O)c3ccccc3)[C@]3(O)C[C@H](OC(=O)[C@H](O)[C@@H](NC(=O)c4ccccc4)c4ccccc4)C(C)=C1C3(C)C)[C@]1(OC(C)=O)CO[C@@H]1C[C@@H]2O [PACLITAXEL]	–	–	–	–	–	–	–	–	> 10 µM	> 10 µM	–	–
CC(=O)O[C@H]1CC[C@]2(C)[C@H]3CC=C4[C@@H]5CC(C)(C)CC[C@]5(C(=O)OCCCCCCO[N+](=O)[O-])CC[C@@]4(C)[C@]3(C)CC[C@H]2C1(C)C	–	–	–	–	–	5 µM	5.3 µM	5.1 µM	7.6 µM	6.4 µM	Active	–
CC1(C)CC[C@]2(C(=O)OCCCCO[N+](=O)[O-])CC[C@]3(C)C(=CC[C@@H]4[C@@]5(C)CC[C@H](OC(=O)c6ccc([N+](=O)[O-])cc6)C(C)(C)[C@@H]5CC[C@]43C)[C@@H]2C1	> 20 µM	> 20 µM	> 20 µM	> 10 µM	> 10 µM	–	–	–	–	–	–	–
CC(=O)OC[C@@]1(C)[C@@H]2CC[C@]3(C)[C@H](CC=C4[C@@H]5CC(C)(C)CC[C@]5(C(=O)OCCO[N+](=O)[O-])CC[C@]43C)[C@@]2(C)CC[C@@H]1OC(C)=O	–	–	–	–	–	5.3 µM	7.3 µM	7 µM	> 40 µM	> 10 µM	Active	–
CC1(C)CC[C@]2(C(=O)OCCCCO[N+](=O)[O-])CC[C@]3(C)C(=CC[C@@H]4[C@@]5(C)CC[C@H](O)C(C)(C)[C@@H]5CC[C@]43C)[C@@H]2C1	–	–	–	–	–	9.2 µM	> 10 µM	> 10 µM	> 10 µM	> 10 µM	–	–
CC(=O)O[C@H]1CC[C@]2(C)[C@H]3CC=C4[C@@H]5CC(C)(C)CC[C@]5(C(=O)OCCO[N+](=O)[O-])CC[C@@]4(C)[C@]3(C)CC[C@H]2C1(C)C	–	–	–	–	–	6.3 µM	7.9 µM	4.9 µM	> 10 µM	6.8 µM	Active	–
CC1(C)CC[C@]2(C(=O)O)CC[C@]3(C)C(=CC[C@@H]4[C@@]5(C)CC[C@H](O)[C@@](C)(CO)[C@@H]5CC[C@]43C)[C@@H]2C1 [HEDERAGENIN]	> 20 µM	> 20 µM	> 20 µM	> 10 µM	> 10 µM	> 10 µM	> 10 µM	> 10 µM	> 10 µM	> 10 µM	–	–
CC1(C)CC[C@]2(C(=O)OCCCCCCO[N+](=O)[O-])CC[C@]3(C)C(=CC[C@@H]4[C@@]5(C)CC[C@H](O)[C@@](C)(CO)[C@@H]5CC[C@]43C)[C@@H]2C1	–	–	–	–	–	> 10 µM	> 10 µM	> 10 µM	> 40 µM	> 10 µM	–	–
CC(=O)OC[C@@]1(C)[C@@H]2CC[C@]3(C)[C@H](CC=C4[C@@H]5CC(C)(C)CC[C@]5(C(=O)O)CC[C@]43C)[C@@]2(C)CC[C@@H]1OC(C)=O	–	–	–	–	–	–	> 10 µM	–	8.5 µM	> 10 µM	–	–
CC1(C)CC[C@]2(C(=O)OCCO[N+](=O)[O-])CC[C@]3(C)C(=CC[C@@H]4[C@@]5(C)CC[C@H](O)C(C)(C)[C@@H]5CC[C@]43C)[C@@H]2C1	0.11 µM	> 20 µM	0.03 µM	> 10 µM	> 10 µM	4.7 µM	5.5 µM	5 µM	6.4 µM	5.5 µM	Active	–
CC1(C)CC[C@]2(C(=O)OCCO[N+](=O)[O-])CC[C@]3(C)C(=CC[C@@H]4[C@@]5(C)CC[C@H](O)[C@@](C)(CO)[C@@H]5CC[C@]43C)[C@@H]2C1	–	–	–	–	–	> 10 µM	9.2 µM	9.5 µM	> 10 µM	> 10 µM	Active	–
CC1(C)CC[C@]2(C(=O)OCCCCO[N+](=O)[O-])CC[C@]3(C)C(=CC[C@@H]4[C@@]5(C)CC[C@H](O)[C@@](C)(CO)[C@@H]5CC[C@]43C)[C@@H]2C1	0.19 µM	> 20 µM	0.04 µM	> 10 µM	> 10 µM	9.3 µM	> 10 µM	> 10 µM	> 10 µM	8 µM	Active	–
CC1(C)CC[C@]2(C(=O)OCCCCO[N+](=O)[O-])CC[C@]3(C)C(=CC[C@@H]4[C@@]5(C)CC[C@H](OCc6ccccc6)C(C)(C)[C@@H]5CC[C@]43C)[C@@H]2C1	> 20 µM	> 20 µM	> 20 µM	> 10 µM	> 10 µM	> 10 µM	> 10 µM	> 10 µM	> 10 µM	> 10 µM	–	–
CC1(C)CC[C@]2(C(=O)OCCCCO[N+](=O)[O-])CC[C@]3(C)C(=CC[C@@H]4[C@@]5(C)CC[C@H](OC(=O)c6ccccc6)C(C)(C)[C@@H]5CC[C@]43C)[C@@H]2C1	> 20 µM	> 20 µM	> 20 µM	> 10 µM	> 10 µM	> 10 µM	> 10 µM	> 10 µM	> 10 µM	> 10 µM	–	–
CC1(C)CC[C@]2(C(=O)O)CC[C@]3(C)C(=CC[C@@H]4[C@@]5(C)CC[C@H](O)C(C)(C)[C@@H]5CC[C@]43C)[C@@H]2C1 [OLEANOLIC_ACID]	> 20 µM	> 20 µM	> 20 µM	> 10 µM	> 10 µM	6.4 µM	> 10 µM	> 10 µM	> 10 µM	> 10 µM	–	–
CC(=O)OC[C@@]1(C)[C@@H]2CC[C@]3(C)[C@H](CC=C4[C@@H]5CC(C)(C)CC[C@]5(C(=O)OCCCCCCO[N+](=O)[O-])CC[C@]43C)[C@@]2(C)CC[C@@H]1OC(C)=O	–	–	–	–	–	4.7 µM	5.1 µM	4.8 µM	4.9 µM	4.6 µM	Active	–
